The text below walks through data of patent publication US10987325B2, “Compositions and uses thereof for treating inflammatory diseases and probiotic compositions” (CHAIN Biotechnology Limited, priority 2016, dated 2021).

In experiment [1] the test system is primary human intestinal organoids. Nature of the experiment: Primary human intestinal organoids, TNFα (40 ng/mL) induced inflammation, mRNA of NF-κB and TNFα by qPCR. The following applies: 10 μM, 18 hours. Format: cell-based.
For experiment [2], the system named is ex vivo colon tissue samples. Kind of experiment: Ex-vivo human colon tissue model, TNF-α stimulus, Proteome Profiler Human XL Cytokine Array. Conditions: TNF-α 60 min then 10 mM for 24 hours, versus TNF-α alone. It counts as cell-based. The method, then:
To induce inflammation, explants are incubated with 100 μl of inflammatory stimulus (TNF-α 15 μg/ml) in 96-well U-bottom sterile plates. Incubate explants for one hour with […] of complete medium (DMEM containing FCS, L-glutamine and antibiotics). […] Tissue explants are then cultured at 37° C. in an atmosphere containing 5% CO2 for 24 hours. Negative controls are tissue explants cultured without stimulus nor candidate compounds (add 200 μl of complete medium). Positive controls are explants treated only with inflammatory stimulus. Following culture, remove tissue explants from culture wells, spin down plates and harvest 180 μl of the culture supernatant. Freeze supernatants and tissue explants at −80° C. Proceed to quantification of analytes of interest in supernatants and/or tissue explants. A Proteome Profiler™ Array was used to measure the relative abundance of a larger set of proteins and cytokines involved in the immune response. The experimental conditions and the preparation of the colon tissue samples was the same as described above. The Human XL Cytokine Array Kit (www.rndsystems.com), Catalog Number ARY022 was used for this experiment. Cytokines, chemokines and growth factors are extracellular signaling molecules that mediate cell to cell communication. These molecules are released from cells and have critical roles in many biological processes such as cellular growth, differentiation, gene expression, migration, immunity and inflammation. In most biological processes, multiple cytokines operate in a large network, where the action of one cytokine is regulated by the presence or absence of other cytokines. The Human XL Cytokine Array Kit is a rapid, sensitive, and economic tool to simultaneously detect cytokine differences between samples. The relative expression levels of 102 human soluble proteins can be determined without performing numerous immunoassays. Capture and control antibodies have been spotted in duplicate on nitrocellulose membranes. […]

The test system of another experiment is IL-23. Nature of the experiment: Primary human intestinal organoids, TNF-α (60 ng/mL), IL-23 mRNA at increasing concentrations, qPCR. It counts as cell-based. The following applies: 24 hours; for impact on IL-23 expression compared with butyrate: at 10-100 μM. The method, then: Primary human intestinal organoids were cultured for 8 weeks prior to experiments as described in […] et al. (2013) Stem Cell Reports.
(In general: Quantitative PCR measures a nucleic acid by following its amplification.)

Experiment [3] has as its system ex vivo colon tissue samples. Nature of the experiment: Ex-vivo human colon tissue model, TNF-α stimulus, protein in culture supernatants by Luminex. It counts as cell-based. An excerpt: Colorectal specimens can be obtained from surgical resections of intestinal tissue or from biopsies, after receiving signed informed consent from the patients. Following resection of tissue, specimens are kept in a specimen collection pot containing DMEM for transportation to the laboratory. Put the specimen in a Petri plate with some medium. Strip the muscle from the resected specimen with sterile scalpel. Transfer the remaining tissue into a new Petri plate with medium and cut the tissue into explants comprising both epithelial and muscularis mucosae (Berry […]. Methods Mol. Biol. 2011; 665: 133-60). Proceed to assay. To induce inflammation, explants are incubated with 100 μl of inflammatory stimulus (TNF-α 15 μg/ml) in 96-well U-bottom sterile plates. Incubate explants for one hour with […] of complete medium (DMEM containing FCS, L-glutamine and antibiotics). […] Tissue explants are then cultured at 37° C. in an atmosphere containing 5% CO2 for 24 hours. Negative controls are tissue explants cultured without stimulus nor candidate compounds (add 200 μl of complete medium). Positive controls are explants treated only with inflammatory stimulus. Following culture, remove tissue explants from culture wells, spin down plates and harvest 180 μl of the culture supernatant. Freeze supernatants and tissue explants at -80° C. Proceed to quantification of analytes of interest in supernatants and/or tissue explants. The Luminex method was used to determine protein concentration in culture supernatants: Luminex Protocol: In house assay was conducted by Dr Carolina Herrera at St Mary's Hospital, Paddington, London. Luminex Assay Buffer: PBS, goat serum, mouse serum, Tween 20, Tris pH 7-8. Luminex Wash Buffer: PBS, Tween-20. Procedure: […] Relative protein level [ng/mL] was determined using a standard curve.

Experiment [4] deals with primary human intestinal organoids. Nature of the experiment: Primary human intestinal organoids, TNF-α (40 ng/mL) induced inflammation, mRNA panel of inflammation factors by qPCR.
The mark [5] stands for this setting: TNF-α 60 min then 10 mM for 24 hours, versus TNF-α alone.
The mark [6] stands for this setting: ex vivo colon tissue, data not shown.
[7] abbreviates: TNF-α 40 ng/mL, sodium salts at 10 μM, 18 hours, versus TNF-α alone.

As to (R)-3-hydroxybutyrate [(R)-3-HB], in experiment [1], the “mRNA expression of NF-κB” value is recorded as “decreased” and the “mRNA expression of TNF-α” value is “decreased”. In experiment [2], the “protein concentration of IL-23 (relative abundance, non-quantitative)” value was “decreased”; the “protein concentration of MMP9 (relative abundance, non-quantitative)” value is given as “decreased”; the “protein concentration of TNF-α (relative abundance, non-quantitative)” value was “decreased”. Moreover, the “impact on IL-23 expression compared with butyrate” value in the experiment with IL-23 was “greater reducing impact”. Also, the “impact on IL-23 expression compared with butyrate” value in the experiment on IL-23 (listed as (R)-3HB) was “greater reducing effect”. The “concentrations effective at reducing expression of IL-23” value in the experiment with IL-23 (sodium salts) lay in the range of 10 to 100 µM. Further, in experiment [3] (setting [5]), the “protein concentration of IL-1β” value was “decreased”, the “protein concentration of IL-6” value is “decreased”, the “protein concentration of IL-12” value was “decreased” and the “protein concentration of anti-inflammatory cytokine IL-10” value is reported as “increased”. For the same substance, in experiment [3] (setting [6]), the “effect on major protective regulators of intestinal inflammation compared with butyrate” value is “greater inducing effect” and the “effect on multiple pro-inflammatory regulators of IBD compared with butyrate” value is on record as “greater reducing effect”. Besides, in experiment [4] (setting [7]), the “mRNA expression of IL-6” value is given as “decreased”, the “mRNA expression of IL-23” value is given as “decreased”, the “mRNA expression of NF-κβ” value is listed as “decreased” and the “mRNA expression of TNF-α” value is listed as “decreased”. Also, in experiment [4] (setting [7]), the “mRNA expression of anti-inflammatory cytokine IL-10” value is given as “increased” and the “mRNA expression of anti-inflammatory cytokine TGF-β1” value is on record as “increased”. Further, in experiment [4] (organoids, data not shown), the “effect on major protective regulators of intestinal inflammation compared with butyrate” value is recorded as “greater inducing effect” and the “effect on multiple pro-inflammatory regulators of IBD compared with butyrate” value is “greater reducing effect”.
